Read-outs that look alike come from different tables or passages of the source.

Test [1] addresses MMP-13 (Homo sapiens, UniProt P45452). Briefly: MMP-13 inhibition (thiopeptide or fluorescent peptide substrate). The class given is biochemical. To be noted: for inhibition at 10 µM / MMP13: % @ 10µM per footnote a; for inhibition at 10 µM / IC50 / inhibition at 1 µM: read-out: MMP13; for inhibition at 1 µM: % at 1 um (specified in cell). The source says: Alternatively, a fluorescent peptide substrate is used.

The target of test [2] is MMP-9 (Homo sapiens, UniProt P14780). Briefly: MMP-9 inhibition (thiopeptide or fluorescent peptide substrate). To be noted: for inhibition at 10 µM: read-out: MMP9.
Protocol: (§1) The enzyme activity is measured by the rate of the color increase. The thiopeptide substrate is made up fresh as a 20 mM stock in 100% DMSO and the DTNB is dissolved in 100% DMSO as a 100 mM stock and stored in the dark at room temperature. Both the substrate and DTNB are diluted together to 1 mM with substrate buffer (50 mM HEPES pH 7.5, 5 mM CaCl2) before use. The stock of enzyme is diluted with buffer (50 mM HEPES, pH 7.5, 5 mM CaCl2, 0.02% Brij) to the desired final concentration.
(§2) Alternatively, a fluorescent peptide substrate is used. In this test procedure, the peptide substrate contains a fluorescent group and a quenching group. Upon cleavage of the substrate by an MMP, the fluorescence that is generated is quantitated on the fluorescence plate reader. The assay is run in HCBC assay buffer (50mM HEPES, pH 7.0, 5 mM Ca^+2, 0.02% Brij, 0.5% Cysteine), with human recombinant MMP-1, MMP-9, or MMP-13. The substrate is dissolved in methanol and stored frozen in 1 mM aliquots. For the assay, substrate and enzymes are diluted in HCBC buffer to the desired concentrations. Compounds are added to the 96 well plate containing enzyme and the reaction is started by the addition of substrate.
(§3) For either the thiopeptide or fluorescent peptide test procedures, the slope of the line is calculated and represents the reaction rate. […] The mean (x±sem) of the control rate is calculated and compared for statistical significance (p<0.05) with drug-treated rates using Dunnett's multiple comparison test.
Test [3] relates to THP-1 cells. In words: Human monocytic THP-1 cell differentiation assay for soluble proteins (THP soluble protein assay), LPS-stimulated, TNF-α ELISA. The class given is cell-based. The settings on record: Homo sapiens, THP-1; at 3 uM; percent change from vehicle positive control; read-out: TNFalpha at 3 uM) THP (percent change). From the text:
Mitogenic stimulation of THP-1 cells cause differentiation into macrophage like cells with concomitant secretion of tumor necrosis factor (TNF-a) and TNF receptor (TNF-R p75/80 and TNF-R p55/60) and Interleukin-8 (IL-8), among other proteins. In addition, non-stimulated THP-1 cells shed both the p75/80 and the p55/60 receptors over time. The release of membrane bound TNF-a and possibly TNF-R p75/80 and TNF-R p55/60, but not IL-8, is mediated by an enzyme called TNF-α converting enzyme or TACE.
THP-1 cells (from ATCC) are a human monocytic cell line which were obtained from the peripheral blood of a person with acute monocytic leukemia. They can be grown in culture and differentiated into macrophage like cells by stimulation with mitogens.
Each vial of cells are cultured for about two weeks prior to being used for an assay and then are used for only 4 to 6 weeks to screen compounds.
Cell exposure to DMSO was limited to 0.1 % final concentration. […] Compounds can be evaluated for their effect on basal (non-stimulated) shedding of the receptors by replacing the LPS with […] of THP-1 media. Plates are placed into an incubator set at 5% CO2 and at 37°C. After 4 hours of incubation, […] of tissue culture supernatant (TCS) is removed for use in an TNF-α ELISA. Following 24 hours of incubation, […] of TCS is removed and used for analysis in TNF-R p75/80, TNF-R p55/60 and IL-8 ELISAs.
In addition, at the 24 hours timepoint, and the cells for each treatment group are collected by resuspension in 500 µl/well of THP-1 media and transferred into a FACS tube. […] The samples are run on a Becton Dickinson FaxCaliber FLOW cytometry machine and the amount of dye taken up by each cell is measured in the high red wavelength (FL3). Only cells with compromised membranes (dead or dying) can take up PI. The percent of live cells is calculated by the number of cells not stained with PI, divided by the total number of cells in the sample. The viability values calculated for the drug treated groups were compared to the viability value calculated for the vehicle treated mitogen stimulated group ("vehicle positive control") to determine the "percent change from control". This "percent change from control" value is an indicator of drug toxicity.
The quantity of soluble TNF-α, TNF-R p75/80 and TNF-R p55/60 and IL-8 in the TCS of the THP-1 cell cultures are obtained with commercially available ELISAs from R&D Systems, by extrapolation from a standard curve generated with kit standards. The number of cells that either take up or exclude PI are measured by the FLOW cytometry machine and visualized by histograms using commercially available Cytologic software for each treatment group including all controls.
Biological variability in the magnitude of the response of THP-1 cell cultures requires that experiments be compared on the basis of percent change from "vehicle positive control" for each drug concentration. Percent change in each soluble protein evaluated from the "vehicle positive control" was calculated for each compound concentration with the following formula: % Change =(pg/ml (compound) - pg/ml (veh pos control))/(pg/ml (veh pos control) - pg/ml (veh neg control))x 100 [formula]
For the soluble protein (TNF-a, p75/80, p55/60, IL-8) studies under stimulated conditions, the mean pg/ml of duplicate wells were determined and the results expressed as percent change from "vehicle positive control". For the soluble protein (p75/80 and p55/60 receptors) studies under non-stimulated conditions, the mean pg/ml of duplicate wells were determined and the results expressed as percent change from […] utilizing the following formula: % Change =(pg/ml (compound neg control) - pg/ml (veh neg control))/(pg/ml (veh neg control))X 100 [formula]
IC50 values for each compound are calculated by non-linear regression analysis using customized software utilizing the JUMP statistical package.
(An ELISA detects its analyte on a solid surface through an enzyme-linked reagent.)

For test [4], the target named is T1, MMP-1 (Homo sapiens, UniProt P03956).
T1 sequence (P03956 100-469): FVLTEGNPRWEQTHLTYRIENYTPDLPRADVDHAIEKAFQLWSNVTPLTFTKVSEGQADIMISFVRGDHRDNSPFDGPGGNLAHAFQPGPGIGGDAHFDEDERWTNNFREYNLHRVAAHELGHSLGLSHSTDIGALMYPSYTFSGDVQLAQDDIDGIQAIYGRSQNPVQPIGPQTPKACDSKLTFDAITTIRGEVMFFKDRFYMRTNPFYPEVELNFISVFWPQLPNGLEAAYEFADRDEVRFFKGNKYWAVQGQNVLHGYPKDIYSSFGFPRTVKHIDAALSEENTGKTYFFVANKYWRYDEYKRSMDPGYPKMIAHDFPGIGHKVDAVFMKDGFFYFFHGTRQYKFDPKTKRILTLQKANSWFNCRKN
Briefly: MMP-1 inhibition (thiopeptide or fluorescent peptide substrate). The settings on record: for inhibition at 10 µM: read-out: MMP1.
Protocol: as §1, §2, §3

Test [5] deals with TNF-α converting enzyme (TACE) (Homo sapiens, UniProt P78536). Briefly: Test procedure for measuring TACE inhibition (fluorescent peptidyl substrate). The test is classed as biochemical. The settings on record: for IC50: second table, IC50 (nM) per footnote a.
Sequence of TNF-α converting enzyme (TACE) (P78536 215-824): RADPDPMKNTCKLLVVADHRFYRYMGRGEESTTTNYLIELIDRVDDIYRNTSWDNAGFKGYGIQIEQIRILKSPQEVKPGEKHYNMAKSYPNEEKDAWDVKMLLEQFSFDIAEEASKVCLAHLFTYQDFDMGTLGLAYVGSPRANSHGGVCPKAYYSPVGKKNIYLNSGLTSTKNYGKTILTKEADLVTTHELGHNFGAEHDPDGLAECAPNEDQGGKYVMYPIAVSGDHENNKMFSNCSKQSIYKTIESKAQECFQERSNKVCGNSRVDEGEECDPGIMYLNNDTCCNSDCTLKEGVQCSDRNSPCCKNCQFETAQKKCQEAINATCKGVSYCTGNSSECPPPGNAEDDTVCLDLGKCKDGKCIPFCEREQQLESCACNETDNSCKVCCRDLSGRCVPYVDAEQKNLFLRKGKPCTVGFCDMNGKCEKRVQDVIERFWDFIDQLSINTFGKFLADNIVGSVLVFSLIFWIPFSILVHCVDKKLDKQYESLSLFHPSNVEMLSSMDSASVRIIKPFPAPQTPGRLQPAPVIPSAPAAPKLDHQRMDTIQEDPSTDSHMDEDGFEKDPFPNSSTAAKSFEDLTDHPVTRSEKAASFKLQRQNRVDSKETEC

Sequence of MMP-9 (P14780 94-707): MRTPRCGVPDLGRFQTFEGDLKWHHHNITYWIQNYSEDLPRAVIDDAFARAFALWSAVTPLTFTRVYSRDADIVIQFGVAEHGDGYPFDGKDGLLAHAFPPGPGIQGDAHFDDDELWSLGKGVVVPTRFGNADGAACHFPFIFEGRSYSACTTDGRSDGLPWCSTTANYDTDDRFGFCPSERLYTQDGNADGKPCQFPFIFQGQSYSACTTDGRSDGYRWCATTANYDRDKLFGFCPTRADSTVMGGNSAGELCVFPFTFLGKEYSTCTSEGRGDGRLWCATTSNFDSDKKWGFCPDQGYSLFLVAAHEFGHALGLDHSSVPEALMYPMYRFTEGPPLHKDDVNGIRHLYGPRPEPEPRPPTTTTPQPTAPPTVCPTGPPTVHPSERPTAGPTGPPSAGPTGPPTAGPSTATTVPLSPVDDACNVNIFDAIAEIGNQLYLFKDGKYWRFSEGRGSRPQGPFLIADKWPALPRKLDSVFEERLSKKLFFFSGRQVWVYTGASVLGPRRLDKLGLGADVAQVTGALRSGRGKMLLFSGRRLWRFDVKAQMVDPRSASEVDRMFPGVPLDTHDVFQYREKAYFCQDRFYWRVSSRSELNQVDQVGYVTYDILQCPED

With `CC#CCOc1ccc(SC(C(=O)NO)c2ccc(OC)cc2)cc1` (stereo not shown) [Example 76, 2-{[4-(2-butynyloxy)phenyl]sulfanyl}-N-hydroxy-2-(4-methoxyphenyl) acetamide], the inhibition at 10 µM in test [1] came out at 26.8%; in test [2], 21.6%; in test [4], 3%. Moreover, in test [3], the inhibition at 3 µM is 15%.
Turning to `CC#CCOc1ccc(SC(C(=O)NO)c2ccc(F)cc2)cc1` (stereo not shown) [Example 95], the inhibition at 10 µM amounted to 26% in test [1], 5.7% in test [2] and 9% in test [4]. Moreover, in test [3], the inhibition at 3 µM is -7%.
Take `CC#CCOc1ccc(S(=O)(=O)C(CCc2ccc(OCCN3CCCCC3)cc2)C(=O)NO)cc1` (stereo not shown) [Example 71]: the values for the IC50 in test [1], in test [2] and in test [4] were 894 nM, 2510 nM and 10000 nM, respectively. In test [3], the inhibition at 3 µM worked out at 11%.
Consider `CC#CCOc1ccc(S(=O)(=O)C(C(=O)NO)C2CCCCC2)cc1` (stereo not shown) [Example 75, 2-{[4-(2-butynyloxy)phenyl]sulfonyl}-2-cyclohexyl-N-hydroxyacetamide], for which the IC50 in test [1] was found to be 708 nM. For the same molecule, the inhibition at 10 µM in test [2] was determined as 68.2%; in test [4], 34.6%. The inhibition at 3 µM in test [3] came to 39%.
With `CC#CCOc1ccc([S+]([O-])C(C(=O)NO)c2ccc(F)cc2)cc1` (stereo not shown) [Example 96], in test [1], the MMP13 is 53.40%. The molecule further showed an MMP9 in test [2] (% @ 10µM per footnote a) of 0%. In test [4] (% @ 10µM per footnote a), the MMP1 is 18.40%.
Turning to `CC#CCOc1ccc(S(=O)(=O)C(C(=O)NO)c2ccc(OC)cc2)cc1` (stereo not shown) [Example 79, 2-{[4-(2-butynyloxy)phenyl]sulfonyl}-N-hydroxy-2-(4-methoxyphenyl) acetamide], the values for the inhibition at 10 µM in test [1], in test [2] and in test [4] were 56.8%, 27.3% and 23.3%, respectively. Besides, the IC50 in test [5] came out at 48.1 nM.
As for `CC#CCOc1ccc(S(=O)(=O)C(C(=O)NO)C2CCNCC2)cc1` (stereo not shown) [Example 118, 2-{[4-(2-butynyloxy)phenyl]sulfonyl}-N-hydroxy-2-(4-piperidinyl) acetamide], the inhibition at 10 µM in test [1] amounted to 69.5%; in test [4], 23.8%. This molecule returned an IC50 in test [5] of 299 nM. Besides, in test [3], the inhibition at 3 µM amounted to 24%.
Regarding `CC#CCOc1ccc([S+]([O-])[C@@H](C(=O)NO)c2ccc(OC)cc2)cc1` (single isomer, unassigned) [Example 77], in test [2], the MMP9 worked out at 45.40%. For the same molecule, in test [4] (% @ 10µM per footnote a), the MMP1 is reported as 17.50%.
With `CC#CCOc1ccc(S(=O)(=O)C(C(=O)NO)C2CCN(Cc3ccc(OC)cc3)CC2)cc1` (stereo not shown) [Example 119, 2-{[4-(2-butynyloxy)phenyl]sulfonyl}-N-hydroxy-2-[1-(4-methoxybenzyl)-4-piperidinyl] acetamide], the values for the inhibition at 10 µM in test [1] and in test [4] were 50% and 9%, respectively. The IC50 in test [5] was determined as 263 nM. Besides, the inhibition at 3 µM in test [3] is 30%.
For the molecule `CC#CCOc1ccc([S+]([O-])C(C(=O)NO)c2ccccc2)cc1` (single isomer, unassigned) [Example 113, S-2-{[4-(2-butynyloxy)phenyl]sulfinyl}-2-phenyl-N-hydroxyacetamide], the MMP13 in test [1] is listed as 59%. In test [2], this molecule showed an MMP9 of 25.70%. Further, the MMP1 in test [4] is 6.20%.
With `CC#CCOc1ccc(SC(C(=O)NO)c2ccccc2OC)cc1` (stereo not shown) [Example 98, 2-(2-methoxyphenyl)-2-{[4-(2-butynyloxy)phenyl]sulfanyl}-N-hydroxyacetamide], the values for the inhibition at 10 µM in test [1] and in test [4] were 59% and 23%, respectively. This molecule registered an IC50 in test [5] of 464 nM. In addition, the inhibition at 3 µM in test [3] was determined as 1%.
As to `CC#CCOc1ccc(S(=O)(=O)C(C(=O)NO)c2ccc(Br)cc2)cc1` (stereo not shown) [Example 88, 2-(4-bromophenyl)-2-{[4-(2-butynyloxy)phenyl]sulfonyl}-N-hydroxyacetamide], the inhibition at 1 µM in test [1] was 21%. In test [5], this molecule came in with an IC50 of 226 nM. In addition, the inhibition at 3 µM in test [3] came to 4%. Moreover, the inhibition at 10 µM in test [4] was 20%.
Consider `CC#CCOc1ccc(S(=O)(=O)C(C(=O)NO)c2ccc3ccccc3c2)cc1` (stereo not shown) [Example 116, 2-{[4-(2-butynyloxy)phenyl]sulfonyl}-2-(2-naphthyl)-N-hydroxyacetamide], for which the inhibition at 1 µM in test [1] turned out to be 33.6%. The IC50 in test [5] worked out at 495 nM. Besides, the inhibition at 3 µM in test [3] was determined as 7%. In test [4], the inhibition at 10 µM amounted to 5.6%.
Turning to `CC#CCOc1ccc(S(=O)(=O)C(C(=O)NO)c2ccc(OCC)cc2)cc1` (stereo not shown) [Example 102], the inhibition at 10 µM in test [1] came out at 71%; in test [4], 26%. This molecule also registered an IC50 in test [5] of 82 nM. In test [3], the inhibition at 3 µM turned out to be 10%.
Take `CC#CCOc1ccc(SC(C(=O)NO)c2ccc3ccccc3c2)cc1` (stereo not shown) [Example 114, 2-{[4-(2-Butynyloxy)phenyl]sulfanyl}-2-(2-naphthyl)-N-hydroxyacetamide]: the inhibition at 10 µM in test [1] turned out to be 30.5%; in test [5] (% @ 10µM per footnote a, read-out: TACE IC50), 40.9%; in test [4], 3.5%. The inhibition at 3 µM in test [3] turned out to be 12%.
As to `CC#CCOc1ccc(S(=O)(=O)C(C(=O)NO)C2CCN(C(=O)c3ccccc3)CC2)cc1` (stereo not shown) [Example 120, 2-(1-benzoyl-4-piperidinyl)-2-{[4-(2-butynyloxy)phenyl]sulfonyl}-N-hydroxyacetamide], in test [1], the inhibition at 1 µM is 51%. Further, the IC50 in test [5] turned out to be 88.5 nM. Moreover, in test [3], the inhibition at 3 µM stood at 63%. Also, in test [4], the inhibition at 10 µM was found to be 24%.
Consider `CC#CCOc1ccc(S(=O)(=O)C(C(=O)NO)c2cccc(Br)c2)cc1` (stereo not shown) [Example 106, 2-{[4-(2-Butynyloxy)phenyl]sulfonyl}-2-(3-bromophenyl)-N-hydroxyacetamide], for which the inhibition at 10 µM was determined as 56% in test [1] and 0% in test [4]. In test [5], this molecule registered an IC50 of 65 nM. Besides, in test [3], the inhibition at 3 µM is -5%.
As for `CC#CCOc1ccc([S+]([O-])C(C(=O)NO)C(C)C)cc1` (stereo not shown) [Example 108, R-2-{[4-(2-butynylaxy)phenyl]sulfinyl}-2-isopropyl-N-hydroxyacetamide], the results for the IC50 in test [2] and in test [4] were 399 nM and 6480 nM, respectively.
Turning to `CC#CCOc1ccc(S(=O)(=O)C(C(=O)NO)C2CCN(C(=O)OC(C)(C)C)CC2)cc1` (stereo not shown) [Example 117, Tert-butyl-4-[1-{[4-(2-butynyloxy)phenyl]sulfonyl}-2-(hydroxyamino)-2-oxoethyl]-1-piperidine carboxylate], the results for the inhibition at 10 µM in test [1] and in test [4] were 52% and 22%, respectively. The IC50 in test [5] came out at 190 nM. In addition, the inhibition at 3 µM in test [3] stood at 50%.

The record behind these values is patent EP1147080B1 (Wyeth Holdings Corporation, priority 1999, dated 2000).
